Reference: ChEMBL document CHEMBL5543084, “Development of cannabidiol derivatives as potent broad-spectrum antibacterial agents with membrane-disruptive mechanism” (Eur J Med Chem, 2024)
Converted amounts (≈) assume the structure as drawn.

Tests used:
[1] = Hemolytic activity against rabbit blood cells incubated for 1 hr relative to control; type: toxicity, cell-based, Oryctolagus cuniculus, Erythrocyte; settings: rabbit blood cells (erythrocytes)
Staphylococcus aureus [2] = experiment: Drug resistance, ratio of MIC for Staphylococcus aureus NCTC 10442 after 21 passages to MIC for Staphylococcus aureus NCTC 10442 during first exposure; type: functional
Escherichia coli [3] = experiment: Bactericidal activity against Escherichia coli ATCC 25922 assessed as bacterial reduction at 8 time of MIC concentration incubated for 2 hrs by time-kill assay; type: functional
Escherichia coli [4] = experiment: Antibacterial activity against Escherichia coli ATCC 25922 assessed as inhibition of bacterial growth incubated for 24 hrs by broth dilution method; type: functional
Staphylococcus aureus [5] = experiment: In vivo antibacterial activity against Staphylococcus aureus ATCC 29213 infected C57BL6 mouse corneal infection model assessed as reduction in bacterial burden at 50 mg/ml, TOP 4 times in a day for 3 consecutive days; type: functional; settings: time 3 day
Pseudomonas aeruginosa [6] = experiment: In vivo antibacterial activity against Pseudomonas aeruginosa ATCC 9027 infected C57BL6 mouse corneal infection model assessed as reduction in bacterial burden at 3 mg/ml, TOP 4 times in a day for 2 consecutive days; type: functional; settings: time 2 day
Pseudomonas aeruginosa [7] = experiment: Antibacterial activity against Pseudomonas aeruginosa ATCC 9027 assessed as inhibition of bacterial growth incubated for 24 hrs by broth dilution method; type: functional
Staphylococcus aureus [8] = experiment: Antibacterial activity against methicillin-resistant Staphylococcus aureus N315 assessed as inhibition of bacterial growth incubated for 24 hrs by broth dilution method; type: functional
Staphylococcus aureus [9] = experiment: Antibacterial activity against methicillin-resistant Staphylococcus aureus NCTC 10442 assessed as inhibition of bacterial growth incubated for 24 hrs by broth dilution method; type: functional
Staphylococcus aureus [10] = experiment: Antibacterial activity against Staphylococcus aureus ATCC 29213 assessed as inhibition of bacterial growth incubated for 24 hrs by broth dilution method; type: functional
Klebsiella pneumoniae [11] = experiment: Antibacterial activity against Klebsiella pneumoniae ATCC 14581 assessed as inhibition of bacterial growth incubated for 24 hrs by broth dilution method; type: functional
Acinetobacter baumannii [12] = experiment: Antibacterial activity against Acinetobacter baumannii R2889 assessed as inhibition of bacterial growth incubated for 24 hrs by broth dilution method; type: functional
Acinetobacter baumannii [13] = experiment: Antibacterial activity against Acinetobacter baumannii ATCC 17978 assessed as inhibition of bacterial growth incubated for 24 hrs by broth dilution method; type: functional
Klebsiella pneumoniae [14] = experiment: Antibacterial activity against Klebsiella pneumoniae ATCC 10031 assessed as inhibition of bacterial growth incubated for 24 hrs by broth dilution method; type: functional

SMILES | HC50 at 1 h [1] | Ratio (Staphylococcus aureus [2]) | Activity (Escherichia coli [3]) | MIC (Escherichia coli [4]) | Activity (Staphylococcus aureus [5]) | Activity (Pseudomonas aeruginosa [6]) | MIC (Pseudomonas aeruginosa [7]) | MIC (Staphylococcus aureus [8]) | MIC (Staphylococcus aureus [9]) | MIC (Staphylococcus aureus [10]) | MIC (Klebsiella pneumoniae [11]) | MIC (Acinetobacter baumannii [12]) | MIC (Acinetobacter baumannii [13]) | MIC (Klebsiella pneumoniae [14])
CC1(C)S[C@@H]2[C@H](NC(=O)[C@H](N)c3ccc(O)cc3)C(=O)N2[C@H]1C(=O)O [AMOXICILLIN] | > 200 µg/mL | 8 | 2.9 log10FFU/ml | 6.25 mg/L (≈ 17.1 µM) | – | – | – | – | – | – | – | – | – | –
NC[C@H]1O[C@H](O[C@H]2[C@H](O)[C@@H](O[C@H]3O[C@H](CO)[C@@H](O)[C@H](N)[C@H]3O)[C@H](N)C[C@@H]2N)[C@H](N)C[C@@H]1O [TOBRAMYCIN] | – | – | – | – | 5.21 log10FFU/ml | 4.64 log10FFU/ml | – | – | – | – | – | – | – | –
CCn1cc(C(=O)O)c(=O)c2cc(F)c(N3CCNCC3)cc21 [NORFLOXACIN] | – | 128 | – | – | – | – | – | – | – | – | – | – | – | –
C=C(C)[C@@H]1CCC(C)=C[C@H]1c1c(OCC(=O)N[C@@H](CCCNC(=N)N)C(N)=O)cc(CCCCC)cc1OCC(=O)N[C@@H](CCCNC(=N)N)C(N)=O | > 200 µg/mL | – | – | > 50 mg/L | – | – | 50 mg/L (≈ 67.5 µM) | 12.5 mg/L (≈ 16.9 µM) | 12.5 mg/L (≈ 16.9 µM) | 12.5 mg/L (≈ 16.9 µM) | > 50 mg/L | > 50 mg/L | 50 mg/L (≈ 67.5 µM) | > 50 mg/L
C=C(C)[C@@H]1CCC(C)=C[C@H]1c1c(OCCCCCN)cc(CCCCC)cc1OCCCCCN | 65.9 µg/mL | – | – | 6.25 mg/L (≈ 12.9 µM) | – | – | > 50 mg/L | 3.12 mg/L (≈ 6.45 µM) | 1.56 mg/L (≈ 3.22 µM) | 3.12 mg/L (≈ 6.45 µM) | 6.25 mg/L (≈ 12.9 µM) | 12.5 mg/L (≈ 25.8 µM) | 6.25 mg/L (≈ 12.9 µM) | 6.25 mg/L (≈ 12.9 µM)
C=C(C)[C@@H]1CCC(C)=C[C@H]1c1c(OCCCCNCCC)cc(CCCCC)cc1OCCCCNCCC | 79.3 µg/mL | – | – | 25 mg/L (≈ 46.2 µM) | – | – | > 50 mg/L | 3.12 mg/L (≈ 5.78 µM) | 1.56 mg/L (≈ 2.88 µM) | 3.12 mg/L (≈ 5.78 µM) | 25 mg/L (≈ 46.2 µM) | 12.5 mg/L (≈ 23.1 µM) | 12.5 mg/L (≈ 23.1 µM) | 12.5 mg/L (≈ 23.1 µM)
C=C(C)[C@@H]1CCC(C)=C[C@H]1c1c(OCCCCNC(=N)N)cc(CCCCC)cc1OCCCCNC(=N)N | 98.4 µg/mL | – | – | 0.78 mg/L (≈ 1.44 µM) | – | – | 6.25 mg/L (≈ 11.6 µM) | 0.39 mg/L (≈ 0.721 µM) | 0.78 mg/L (≈ 1.44 µM) | 0.78 mg/L (≈ 1.44 µM) | 0.78 mg/L (≈ 1.44 µM) | 0.78 mg/L (≈ 1.44 µM) | 1.56 mg/L (≈ 2.88 µM) | 1.56 mg/L (≈ 2.88 µM)
C=C(C)[C@@H]1CCC(C)=C[C@H]1c1c(OCC(=O)OCC)cc(CCCCC)cc1OCC(=O)OCC | > 200 µg/mL | – | – | > 100 mg/L | – | – | > 50 mg/L | > 50 mg/L | > 50 mg/L | > 50 mg/L | > 50 mg/L | > 50 mg/L | > 50 mg/L | > 50 mg/L
C=C(C)[C@@H]1CCC(C)=C[C@H]1c1c(OCCCCN2CCSCC2)cc(CCCCC)cc1OCCCCN1CCSCC1 | > 200 µg/mL | – | – | > 100 mg/L | – | – | > 50 mg/L | > 50 mg/L | > 50 mg/L | > 50 mg/L | > 50 mg/L | > 50 mg/L | > 50 mg/L | > 50 mg/L
C=C(C)[C@@H]1CCC(C)=C[C@H]1c1c(OCCCCCCCCCCN)cc(CCCCC)cc1OCCCCCCCCCCN | > 200 µg/mL | – | – | > 50 mg/L | – | – | > 50 mg/L | > 50 mg/L | > 50 mg/L | > 50 mg/L | > 50 mg/L | > 50 mg/L | > 50 mg/L | > 50 mg/L
C=C(C)[C@@H]1CCC(C)=C[C@H]1c1c(OCC(=O)N[C@@H](CCCNC(=N)N)C(=O)N[C@@H](CCCNC(=N)N)C(=O)OC)cc(CCCCC)cc1OCC(=O)N[C@@H](CCCNC(=N)N)C(=O)N[C@@H](CCCNC(=N)N)C(=O)OC | > 200 µg/mL | – | – | 50 mg/L (≈ 46.2 µM) | – | – | 50 mg/L (≈ 46.2 µM) | 1.56 mg/L (≈ 1.44 µM) | 1.56 mg/L (≈ 1.44 µM) | 1.56 mg/L (≈ 1.44 µM) | > 50 mg/L | 50 mg/L (≈ 46.2 µM) | 25 mg/L (≈ 23.1 µM) | 50 mg/L (≈ 46.2 µM)
C=C(C)[C@@H]1CCC(C)=C[C@H]1c1c(OCCCCN(CC)CC)cc(CCCCC)cc1OCCCCN(CC)CC | > 200 µg/mL | – | – | > 50 mg/L | – | – | > 50 mg/L | 6.25 mg/L (≈ 11 µM) | 12.5 mg/L (≈ 22 µM) | 6.25 mg/L (≈ 11 µM) | > 50 mg/L | 50 mg/L (≈ 87.9 µM) | > 50 mg/L | 50 mg/L (≈ 87.9 µM)
C=C(C)[C@@H]1CCC(C)=C[C@H]1c1c(OCCCCCCBr)cc(CCCCC)cc1OCCCCCCBr | > 200 µg/mL | – | – | > 100 mg/L | – | – | > 50 mg/L | > 50 mg/L | > 50 mg/L | > 50 mg/L | > 50 mg/L | > 50 mg/L | > 50 mg/L | > 50 mg/L
C=C(C)[C@@H]1CCC(C)=C[C@H]1c1c(OCC(=O)N[C@@H](CCCNC(=N)N)C(=O)OC)cc(CCCCC)cc1OCC(=O)N[C@@H](CCCNC(=N)N)C(=O)OC | > 200 µg/mL | – | – | 6.25 mg/L (≈ 8.11 µM) | – | – | 50 mg/L (≈ 64.9 µM) | 1.56 mg/L (≈ 2.02 µM) | 0.78 mg/L (≈ 1.01 µM) | 1.56 mg/L (≈ 2.02 µM) | 25 mg/L (≈ 32.4 µM) | 25 mg/L (≈ 32.4 µM) | 12.5 mg/L (≈ 16.2 µM) | 25 mg/L (≈ 32.4 µM)
C=C(C)[C@@H]1CCC(C)=C[C@H]1c1c(OCCCCN(C)CCCNC)cc(CCCCC)cc1OCCCCN(C)CCCNC | > 200 µg/mL | – | – | 3.12 mg/L (≈ 4.98 µM) | – | – | 3.12 mg/L (≈ 4.98 µM) | 1.56 mg/L (≈ 2.49 µM) | 1.56 mg/L (≈ 2.49 µM) | 1.56 mg/L (≈ 2.49 µM) | 3.12 mg/L (≈ 4.98 µM) | 3.12 mg/L (≈ 4.98 µM) | 1.56 mg/L (≈ 2.49 µM) | 1.56 mg/L (≈ 2.49 µM)
C=C(C)[C@@H]1CCC(C)=C[C@H]1c1c(OCCCCN)cc(CCCCC)cc1OCCCCN | 141 µg/mL | – | – | 3.12 mg/L (≈ 6.84 µM) | – | – | 50 mg/L (≈ 109 µM) | 3.12 mg/L (≈ 6.84 µM) | 3.12 mg/L (≈ 6.84 µM) | 3.12 mg/L (≈ 6.84 µM) | 12.5 mg/L (≈ 27.4 µM) | 3.12 mg/L (≈ 6.84 µM) | 3.12 mg/L (≈ 6.84 µM) | 6.25 mg/L (≈ 13.7 µM)
